Measurements taken from patent US20260273028A1, “PEROXIDASE COMPOSITIONS CONTAINING IMPROVED ENHANCING AGENTS” (FLEN HEALTH PHARMA NV, priority 2022, published 2026).

Columns and labels:
[1] = test system: Aspergillus niger ATCC®16404™; assay: MBC determination, broth microdilution with CFU enumeration; format: cell-based; settings: A. niger; enhancer 1%-0.01%
Protocol: (§1) The minimal bactericidal concentration (MBC) is defined as the lowest concentration of an antimicrobial agent that results in a complete killing of the microbial population (determined via standard CFU enumeration techniques) after overnight incubation. This endpoint measurement is used, together with the MIC (see above), to define the microbial susceptibility towards an antimicrobial agent. Here, the antimicrobial agent is a combination of the natural enzymes GOX+LPO.
(§2) To determine the MBC of the described combinations, a classical broth microdilution assay combined with standard CFU enumeration techniques was used to determine the susceptibility of a series of microbes commonly detected in infected wounds, including (a) the Gram-positive bacterium Staphylococcus aureus ATCC® 6538™ (results shown below), (b) the Gram-negative bacterium Pseudomonas aeruginosa ATCC®9027™ (results shown below), (c) the yeast Candida albicans ATCC®10231™ (results shown below), and (d) the fungus Aspergillus niger ATCC®16404™ (results shown below). In brief, the broth microdilution assay was set up as previously described (see 2.1). After incubation, the MBC was determined by investigating the presence of viable microorganisms at the MIC and following higher concentrations (MICx2, MICx4, and so on) using standard CFU enumeration techniques. For each combination evaluated, this test was repeated at least 5 times. The collected data were further analyzed in MS Excel. Mean concentration data (expressed as log CFU/ml) were visualized in a table format in which the MBC was highlighted.

[2] = test system: Pseudomonas aeruginosa ATCC®9027™; assay: as above; format: cell-based; settings: P. aeruginosa
Protocol: as §1, §2

S. aureus (ATCC®6538™) = assay: Microbial challenge testing in alginogel with GOX+LPO; format: cell-based; settings: for reduction in absolute S. aureus counts compared to guaiacol in the same concentration: alginogel with GOX+LPO, enhancer 0.0005%; for antimicrobial activity of enhancing candidate only against S. aureus: alginogel without enzymes, highest concentration tested; for reduction in absolute S. aureus counts compared to reference (enzymes only): alginogel, 0.0075% GOX+LPO
Protocol: (§3) To determine the ability of an antimicrobial agent to elicit an antimicrobial preserving efficacy in a gel environment, a microbiological challenge test can be performed. Here, the antimicrobial agent is a combination of the natural enzymes GOX+LPO. […] Microbial challenge testing was performed according to the method described in the European Pharmacopoeia current version chapter 5.1.3 ‘Efficacy of antimicrobial preservation’, but with adapted time points (0, 10, 20, 30, 40, 50, 60, 70 and 80 min instead of 0, 2, 7, 14 and 28 days). In brief, for every enhancing agent to be evaluated, a lab-scale alginogel (based on the Flaminal® formulation, but without the original enhancer guaiacol) including 0.0075% GOX+LPO (1:1) was prepared according to standard practices. Enhancing agents were added to the alginogel in a final concentration ranging from 0.01 to 0,00025% (v/w). As a reference, an alginogel including 0.0075% GOX+LPO (1:1) without the addition of any enhancing agent was included (designated as: enzymes only). As a control, an alginogel without both GOX+LPO (1:1) enzyme solution and enhancing agent (designated as: empty gel) as well as an alginogel only containing the enhancing agent only (designated as: enhancing candidate only) were included. After preparation, a homogenous sample of 10 g was transferred into a 50 ml conical tube for each alginogel to be evaluated and microorganism to be tested. For each test microorganism, including S. aureus (ATCC®6538™), P. aeruginosa (ATCC®9027™), C. albicans (ATCC®10231™) and A. niger (ATCC®16404 ™), a microbial suspension of about 10^8 CFU/ml was prepared in sterile diluent (buffered sodium chloride-peptone solution). Then, the 50 ml conical tubes containing the alginogel samples to be evaluated were inoculated with 100 μl of the designated inoculum. At the start (time point 0) and after 0, 10, 20, 30, 40, 50, 60, 70 and 80 min, the number of viable microorganisms per gram product (expressed as CFU/g) was determined by transferring a sample of 0.5 g of the product into a 15 ml conical tube containing 4.5 ml of sterile diluent and applying general dilution and plate count techniques. For each combination evaluated, this test was repeated at least 1-3 times. The collected data were further analyzed in MS Excel. Mean absolute counts (expressed as log CFU/g) were visualized in a graph.
The purpose of the hereby described experiment was to compare the efficacy of antimicrobial activity enhancement of the GOX+LPO (1:1) enzyme combination by ethanolamine and proline in a microbial challenge test using S. aureus. The test was set up as described in the section on ‘challenge testing’ in Example 2.4. The test was repeated at least 3 times.
The purpose of the hereby described experiment was to compare the efficacy of antimicrobial activity of the GOX+LPO (1:1) enzyme combination in the presence of potassium chloride/potassium bromide and potassium iodide. A microbial challenge test using S. aureus was performed. The test was set up as described in the section on ‘challenge testing’ in Example 2.4.

A. niger (ATCC®16404 ™) = assay: as above; format: cell-based; settings: for reduction in absolute A. niger counts compared to guaiacol in the same concentration: alginogel with GOX+LPO; for antimicrobial activity of enhancing candidate only against A. niger: alginogel without enzymes, highest concentration tested; for reduction in absolute A. niger counts compared to reference (enzymes only): alginogel, 0.0075% GOX+LPO
Protocol: as §3

[3] = test system: C. albicans (ATCC®10231™); assay: as above; format: cell-based; settings: for reduction in absolute C. albicans counts compared to guaiacol in the same concentration: alginogel with GOX+LPO, enhancer 0.0005%; for antimicrobial activity of enhancing candidate only against C. albicans: alginogel without enzymes, highest concentration tested; for reduction in absolute C. albicans counts compared to reference (enzymes only): alginogel, 0.0075% GOX+LPO
Protocol: as §3

[4] = test system: P. aeruginosa (ATCC®9027™); assay: as above; format: cell-based; settings: for reduction in absolute P. aeruginosa counts compared to guaiacol in the same concentration: alginogel with GOX+LPO, enhancer 0.0005%; for antimicrobial activity of enhancing candidate only against P. aeruginosa: alginogel without enzymes, highest concentration tested; for reduction in absolute P. aeruginosa counts compared to reference (enzymes only): alginogel, 0.0075% GOX+LPO
Protocol: as §3

[5] = exemplary values; cited from earlier work

SMILES | MBC: GOX+LPO enzyme solution needed [1] | increase in MBC compared to reference [1] [×] | reduction in absolute S. aureus counts compared to guaiacol in the same concentration (S. aureus (ATCC®6538™)) | antimicrobial activity of enhancing candidate only against S. aureus (S. aureus (ATCC®6538™)) | reduction in absolute S. aureus counts compared to reference (enzymes only) (S. aureus (ATCC®6538™); enhancer 0.00125-0.0005%) | reduction in absolute S. aureus counts compared to reference (enzymes only) (S. aureus (ATCC®6538™); enhancer 0.0025%) | antimicrobial activity of enhancing candidate only against A. niger (A. niger (ATCC®16404 ™)) | reduction in absolute C. albicans counts compared to guaiacol in the same concentration [3] | antimicrobial activity of enhancing candidate only against C. albicans [3] | reduction in absolute C. albicans counts compared to reference (enzymes only) ([3]; enhancer 0.0025%) | reduction in absolute P. aeruginosa counts compared to guaiacol in the same concentration [4] | antimicrobial activity of enhancing candidate only against P. aeruginosa [4] | reduction in absolute P. aeruginosa counts compared to reference (enzymes only) ([4]; enhancer 0.00125-0.0005%) | reduction in absolute P. aeruginosa counts compared to reference (enzymes only) ([4]; enhancer 0.0025%) | LogP (octanol/water partition coefficient) [5] | other results
N[C@@H](CO)C(=O)O [Serine, serine] | 0.000156 % (v/v) | 2 | faster complete reduction | no antimicrobial activity | faster complete reduction | immediate entire reduction | no antimicrobial activity | faster complete reduction | no antimicrobial activity | immediate entire reduction | faster complete reduction | no antimicrobial activity | faster complete reduction | immediate entire reduction | LogP = −3.07 | MBC: GOX+LPO enzyme solution needed ([2]; enhancer 0.0025-0.00125%): 0.000625 % (v/v); increase in MBC compared to reference or guaiacol solution ([2]; enhancer 0.0025-0.00125%): 2 ×; MBC: GOX+LPO enzyme solution needed ([2]; enhancer 0.01-0.005%): 0.000625 % (v/v); increase in MBC compared to reference or guaiacol solution ([2]; enhancer 0.01-0.005%): 2 ×; reduction in absolute A. niger counts compared to guaiacol in the same concentration (A. niger (ATCC®16404 ™); enhancer 0.0005%): faster complete reduction; reduction in absolute A. niger counts compared to reference (enzymes only) (A. niger (ATCC®16404 ™); enhancer 0,0025-0,0005%): faster complete reduction; reduction in absolute C. albicans counts compared to reference (enzymes only) ([3]; enhancer 0.00125%): faster complete reduction
C[C@@H](O)[C@H](N)C(=O)O [Threonine, threonine] | 0.000156 % (v/v) | 2 | faster complete reduction | no antimicrobial activity | faster complete reduction | immediate entire reduction | no antimicrobial activity | faster complete reduction | no antimicrobial activity | immediate entire reduction | faster complete reduction | no antimicrobial activity | faster complete reduction | immediate entire reduction | LogP = −2.94 | MBC: GOX+LPO enzyme solution needed ([2]; enhancer 0,1%): 0.000625 % (v/v); increase in MBC compared to reference ([2]; enhancer 0,1%): 2 ×; MBC: GOX+LPO enzyme solution needed ([2]; enhancer 1%): 0.000156 % (v/v); increase in MBC compared to reference ([2]; enhancer 1%): 8 ×; reduction in absolute A. niger counts compared to guaiacol in the same concentration (A. niger (ATCC®16404 ™); enhancer 0.0025%): faster complete reduction; reduction in absolute A. niger counts compared to reference (enzymes only) (A. niger (ATCC®16404 ™); enhancer 0.0025%): faster complete reduction; reduction in absolute C. albicans counts compared to reference (enzymes only) ([3]; enhancer 0,00125-0,0005%): faster complete reduction
